PubChem BioAssay (NCI)
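Five compound concentrations were applied to cells in 96-well plates for 48 hours; endpoints were derived by simple linear interpolation of the resulting dose-response curve. GI50 = concentration required for 50% inhibition of growth. At the TGI there is no net growth.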

Legend:
Assay in all cases: DTP human tumour cell line panel, 48 h; in the data active means GI50 below about 0.43 µM; inactive means the rest
ACHN renal = test system: ACHN renal
SF-295 CNS = test system: SF-295 CNS
DU-145 prostate = test system: DU-145 prostate
SW-620 colon = test system: SW-620 colon
UACC-62 melanoma = test system: UACC-62 melanoma
HCC-2998 colon = test system: HCC-2998 colon
SN12C renal = test system: SN12C renal
NCI-H522 lung = test system: NCI-H522 lung
OVCAR-5 ovarian = test system: OVCAR-5 ovarian
OVCAR-8 ovarian = test system: OVCAR-8 ovarian
SR leukemia = test system: SR leukemia
HCT-116 colon = test system: HCT-116 colon
IGROV1 ovarian = test system: IGROV1 ovarian
M14 melanoma = test system: M14 melanoma
SK-MEL-5 melanoma = test system: SK-MEL-5 melanoma
786-0 renal = test system: 786-0 renal
SK-OV-3 ovarian = test system: SK-OV-3 ovarian
NCI/ADR-RES ovarian = test system: NCI/ADR-RES ovarian
HS 578T breast = test system: HS 578T breast
COLO 205 colon = test system: COLO 205 colon
SK-MEL-2 melanoma = test system: SK-MEL-2 melanoma
UO-31 renal = test system: UO-31 renal
NCI-H460 lung = test system: NCI-H460 lung
CAKI-1 renal = test system: CAKI-1 renal
A498 renal = test system: A498 renal
MOLT-4 leukemia = test system: MOLT-4 leukemia
RPMI-8226 leukemia = test system: RPMI-8226 leukemia
CCRF-CEM leukemia = test system: CCRF-CEM leukemia
A549 NSCLC = test system: A549 NSCLC
NCI-H226 lung = test system: NCI-H226 lung
UACC-257 melanoma = test system: UACC-257 melanoma
HOP-62 NSCLC = test system: HOP-62 NSCLC
OVCAR-4 ovarian = test system: OVCAR-4 ovarian
HCT-15 colon = test system: HCT-15 colon
HOP-92 NSCLC = test system: HOP-92 NSCLC
BT-549 breast = test system: BT-549 breast
K-562 leukemia = test system: K-562 leukemia
OVCAR-3 ovarian = test system: OVCAR-3 ovarian
U251 CNS = test system: U251 CNS
SF-268 CNS = test system: SF-268 CNS
PC-3 prostate = test system: PC-3 prostate
SF-539 CNS = test system: SF-539 CNS
MDA-MB-231 breast = test system: MDA-MB-231 breast
HL-60(TB) leukemia = test system: HL-60(TB) leukemia
MDA-MB-435 = test system: MDA-MB-435
LOX IMVI melanoma = test system: LOX IMVI melanoma
RXF 393 renal = test system: RXF 393 renal
EKVX NSCLC = test system: EKVX NSCLC
SNB-19 CNS = test system: SNB-19 CNS
KM12 colon = test system: KM12 colon
TK-10 renal = test system: TK-10 renal
NCI-H23 lung = test system: NCI-H23 lung
MCF7 breast = test system: MCF7 breast
SK-MEL-28 melanoma = test system: SK-MEL-28 melanoma

N#Cc1cc2c(=S)[nH]c(=S)[nH]c2nc1SCc1ccccc1
87.4 µM: TGI (MDA-MB-231 breast)
inactive: GI50 (ACHN renal) 27.4 µM | GI50 (SF-295 CNS) 46.8 µM | GI50 (DU-145 prostate) 82.9 µM | GI50 (SW-620 colon) 48.9 µM | GI50 (UACC-62 melanoma) 17 µM | GI50 (HCC-2998 colon) 24.6 µM | GI50 (SN12C renal) 22.7 µM | GI50 (NCI-H522 lung) > 100 µM | GI50 (OVCAR-5 ovarian) 76.2 µM | GI50 (OVCAR-8 ovarian) 58.1 µM | GI50 (SR leukemia) 41.3 µM | GI50 (HCT-116 colon) 29.8 µM | GI50 (IGROV1 ovarian) 55.8 µM | GI50 (M14 melanoma) 58.2 µM | GI50 (SK-MEL-5 melanoma) 20.7 µM | GI50 (786-0 renal) 28.1 µM | GI50 (SK-OV-3 ovarian) > 100 µM | GI50 (NCI/ADR-RES ovarian) 28.1 µM | GI50 (HS 578T breast) 39.6 µM | GI50 (COLO 205 colon) 46.2 µM | GI50 (SK-MEL-2 melanoma) 66.7 µM | GI50 (UO-31 renal) 44.8 µM | GI50 (NCI-H460 lung) 38.8 µM | GI50 (CAKI-1 renal) 10.1 µM | GI50 (A498 renal) 39.9 µM | GI50 (MOLT-4 leukemia) 43.3 µM | GI50 (RPMI-8226 leukemia) 26.4 µM | GI50 (CCRF-CEM leukemia) 33.1 µM | GI50 (A549 NSCLC) 32.3 µM | GI50 (NCI-H226 lung) 24.4 µM | GI50 (UACC-257 melanoma) 47.4 µM | GI50 (HOP-62 NSCLC) 63.2 µM | GI50 (OVCAR-4 ovarian) 39.2 µM | GI50 (HCT-15 colon) 33.4 µM | GI50 (HOP-92 NSCLC) 30.1 µM | GI50 (BT-549 breast) 47.2 µM | GI50 (K-562 leukemia) 36.9 µM | GI50 (OVCAR-3 ovarian) 65.5 µM | GI50 (U251 CNS) 29.5 µM | GI50 (SF-268 CNS) 30.6 µM | GI50 (PC-3 prostate) 23.6 µM | GI50 (SF-539 CNS) 57.1 µM | GI50 (MDA-MB-231 breast) 21.7 µM | GI50 (HL-60(TB) leukemia) 30.4 µM | GI50 (MDA-MB-435) 34.8 µM | GI50 (LOX IMVI melanoma) 17.3 µM | GI50 (RXF 393 renal) 31.8 µM | GI50 (EKVX NSCLC) 63.3 µM | GI50 (SNB-19 CNS) > 100 µM | GI50 (KM12 colon) 29.2 µM | GI50 (TK-10 renal) 12.3 µM | GI50 (NCI-H23 lung) 32 µM | GI50 (MCF7 breast) 50.6 µM | GI50 (SK-MEL-28 melanoma) 69.7 µM
77.4 µM: TGI (HL-60(TB) leukemia)
54.6 µM: TGI (UACC-62 melanoma)
> 100 µM: TGI (ACHN renal) | TGI (SF-295 CNS) | TGI (DU-145 prostate) | TGI (SW-620 colon) | TGI (SN12C renal) | TGI (NCI-H522 lung) | TGI (OVCAR-5 ovarian) | TGI (OVCAR-8 ovarian) | TGI (SR leukemia) | TGI (HCT-116 colon) | TGI (IGROV1 ovarian) | TGI (M14 melanoma) | TGI (786-0 renal) | TGI (SK-OV-3 ovarian) | TGI (NCI/ADR-RES ovarian) | TGI (HS 578T breast) | TGI (COLO 205 colon) | TGI (SK-MEL-2 melanoma) | TGI (UO-31 renal) | TGI (NCI-H460 lung) | TGI (A498 renal) | TGI (MOLT-4 leukemia) | TGI (RPMI-8226 leukemia) | TGI (CCRF-CEM leukemia) | TGI (A549 NSCLC) | TGI (UACC-257 melanoma) | TGI (HOP-62 NSCLC) | TGI (OVCAR-4 ovarian) | TGI (HCT-15 colon) | TGI (HOP-92 NSCLC) | TGI (BT-549 breast) | TGI (K-562 leukemia) | TGI (OVCAR-3 ovarian) | TGI (U251 CNS) | TGI (SF-268 CNS) | TGI (PC-3 prostate) | TGI (SF-539 CNS) | TGI (MDA-MB-435) | TGI (RXF 393 renal) | TGI (EKVX NSCLC) | TGI (SNB-19 CNS) | TGI (KM12 colon) | TGI (NCI-H23 lung) | TGI (MCF7 breast) | TGI (SK-MEL-28 melanoma)
65 µM: TGI (TK-10 renal)
79 µM: TGI (HCC-2998 colon)
43.4 µM: TGI (LOX IMVI melanoma)
94.3 µM: TGI (NCI-H226 lung)
52.3 µM: TGI (SK-MEL-5 melanoma)
76.8 µM: TGI (CAKI-1 renal)
